According to patent US20200022998A1, “MEDICAL USE OF NOTCH4 OR INHIBITORS THEREOF” (BEIJING INSTITUTE OF GENOMICS, CHINESE ACADEMY OF SCIENCES, priority 2016, published 2020):

Columns and labels:
Assay type in all cases: cell-based, human
[1] = test system: iPSCs-derived CD34+ cells; experiment: proplatelet formation, iPSC-derived CD34+ cells; conditions: 10 μM; DMSO about 47%; FIG. 19D
Method: (§1) iPSC-derived CD34^+ cells (prepared by the method as described in Example 3-2) and umbilical cord blood-derived CD34^+ cells were seeded at 1*10^6 cells per well to 4 ml StemSpan™ SFEM 11+50 ng/ml SCF+50 ng/ml TPO+50 ng/ml IL-6+20 ng/ml IL-3, in a 12-well plate, with 1 ml medium for each well, and 3 wells in total for each cell line, to which 10 μM RO4929097, 10 μM DAPT, and the same volume of DMSO as control, were added, respectively, and the time was recorded as Day 0. The liquid was changed every 3 days, and the culture condition was 37° C., 5% CO2. After iPSC-derived CD34^+ cells were incubated for 6 days, and umbilical cord blood-derived CD34^+ cells were incubated for 9 days, the following experiment was carried out.
(§2) Proplatelet formation of MKs referred to mature megakaryocytes, which extended long and branched filaments and cytoplasmic protrusions.

[2] = test system: umbilical cord blood-derived CD34+ cells; experiment: in vitro megakaryocyte lineage differentiation of umbilical cord blood-derived CD34+ cells, flow cytometry; conditions: 10 μM; for number of mature megakaryocytes (CD41+CD42+) produced, increase vs control group: FIG. 15; for proportion of mature megakaryocyte (CD61+), increase vs control group / proportion of mature megakaryocytes MK (CD41+CD42+) produced, increase vs control group: cells collected at D14, FIG. 14
Method: (1) CD34^+ cells in umbilical cord blood were obtained by Ficoll-Paque PLUS density gradient centrifugation and magnetic bead sorting using CD34 MicroBead Kit. As to the particular steps, please refer to (GE Healthcare Life Sciences, http://www.gelifesciences.com), (Miltenyi Biotec, http://www.miltenyibiotec.com.cn).
(2) Differentiation of umbilical cord blood-derived CD34^+ cells into megakaryocytes: umbilical cord blood-derived CD34^+ cells were counted, and seeded at 1*10^6 cells to 4 ml StemSpan™ SFEM 11+50 ng/ml SCF+50 ng/ml TPO+50 ng/ml IL-6+20 ng/ml IL-3 in a 12-well plate, with 1 ml medium for each well, and four wells in total, to which 10 μM R04929097, 10 μM L-685458, 10 μM DAPT, and the same volume of DMSO as control were added, respectively, and the time was recorded as Day 0. The liquid was changed every 3 days, and the culture condition was 37° C., 5% CO2. After incubation for 6 days, the cell density was high, and the cells in each well were divided into two wells of a 12-well plate, with 2 ml medium for each well. The inhibitors were added at the same concnetrations as described above. The cells were collected at D14, counted, and detected for cell surface markers (CD41, CD42, CD61) by flow cytometer.
As to the collection of umbilical cord blood-derived CD34^+ cells, in vitro megakaryocytic differentiation and detection, please refer to Example 4-1.

[3] = test system: umbilical cord blood-derived CD34+ cells; experiment: megakaryocyte colony forming unit (MK-CFU) experiment, umbilical cord blood-derived CD34+ cells; conditions: 10 μM; FIG. 16
Method: Megakaryocyte colony forming unit (MK-CFU) experiment: at Day 14, the cells resulted from induced differentiation were collected, and 7,500 single cells were seeded to collagen-based MegaCult-C Kit. After incubation for 10-12 days, the cells were stained with anti-CD41 antibody and counted. CD41^+ megakaryocyte colonies were counted.

[4] = test system: umbilical cord blood-derived CD34+ cells; experiment: polyploid detection, umbilical cord blood-derived CD34+ cells; conditions: 10 μM; DMSO about 16%; FIG. 18
Method: as §1
Cells were labeled with CD61-FITC flow cytometric antibody at 4° C. for 30 min. The cells were washed with PBS once, and fixed with 70% ethanol at 4° C. overnight. At the second day, the cells were washed with PBS once. After centriguation, 1 ml PBE (PBS containing 2% serum) +100 μg/ml RNase A +50 μg/ml Propidium Iodide, was added, and incubation was carried out in dark at room temperature for 30 min. The cells were washed with PBS once, and the number of cells (≥8N) in CD61^+ cell population was determined by flow cytometry.

[5] = test system: umbilical cord blood-derived CD34+ cells; experiment: proplatelet formation, umbilical cord blood-derived CD34+ cells; conditions: 10 μM; DMSO about 44%; FIG. 20D
Method: as §1, §2

| SMILES | proportion of proplatelet-bearing MKs in 100 differentiated cells [1] | number of mature megakaryocytes (CD41+CD42+) produced, increase vs control group [2] [folds] | proportion of mature megakaryocyte (CD61+), increase vs control group [2] [folds] | proportion of mature megakaryocytes MK (CD41+CD42+) produced, increase vs control group [2] [folds] | ability of megakaryocyte progenitor cells to form mature MK colony (CFU-MK), increase vs control group [3] [folds] | proportion of polyploid megakaryocytes (≥8N) in CD61+ megakaryocytes [4] | proportion of proplatelet-bearing MKs in 100 differentiated cells [5] |
| --- | --- | --- | --- | --- | --- | --- | --- |
| C[C@H](NC(=O)Cc1cc(F)cc(F)c1)C(=O)N[C@H](C(=O)OC(C)(C)C)c1ccccc1 [DAPT] | ~50% | 2.9 | 2.5 | 4.1 | 2.8 | ~12% | ~42% |
| CC(C)(C(=O)NCC(F)(F)C(F)(F)F)C(=O)N[C@@H]1C(=O)Nc2ccccc2-c2ccccc21 [RO4929097] | about 46% | 2.9 | 3.1 | 4.5 | 2.8 | about 15% | about 40% |
